Measured values from paper PMC13316043, “Structural basis of NSD2 degradation via targeted recruitment of SCF-FBXO22” (Nature Communications, 2026).

Tested on: His-tagged NSD2 PWWP1
Assay: TR-FRET cooperativity (competition) assay: displacement of biotinylated NSD2 ligand UNC7096
Assay type: binding, human
Description: Because of the direct interactions observed between FBXO22 and NSD2, we hypothesized that some degree of cooperative binding could facilitate complex stabilization. Therefore, we developed a TR-FRET assay to monitor the interaction between his-tagged NSD2 and a biotinylated NSD2 ligand, UNC7096, that is missing the modality for FBXO22-recruitment (Supplementary Fig. 3D)[20]. Given the positive FRET signal observed when both NSD2 PWWP1 and UNC7096 are present, we used this setup to evaluate the displacement of UNC7096 by UNC10088 in the presence or absence of the FBXO22 FIST domain (Supplementary Fig. 3D). […] Importantly, this FBXO22-dependent enhancement of NSD2 antagonism by UNC10088 was absent when C326 was substituted for alanine (Supplementary Fig. 3F). Taken together, the SCF^FBXO22-NSD2 PWWP1 structure both confirms prior results and provides additional insight into the surfaces that contribute to a cooperative interaction between NSD2 and FBXO22 to promote potent NSD2 polyubiquitination and degradation.
The TR-FRET assay was adapted to assess cooperativity from the following workflows previously reported[39],[40]. Assays were performed in white, low-volume, flat-bottom, nonbinding 384-well microplates (Greiner, Catalog No. 784904) with a final assay volume of 10 μL per well. The assay buffer contained 20 mM Tris–HCl (pH 7.5) and 150mM NaCl, 0.05% Tween-20 (v/v), 2mM DTT, and 1% DMSO (v/v). LANCE Europium (Eu)-W8044 Streptavidin conjugate (2 nM) and LANCE Ultra ULight-anti6x-His labeled antibodies (10 nM) were used as donor and acceptor fluorophores associated with the tracer ligand and protein, respectively. Final assay concentrations of 63 nM His-tagged NSD2 PWWP1 and 31 nM of UNC7096 (a biotinylated version of the NSD2 ligand) as a tracer ligand were used for compound testing. UNC8732, UNC10088, and UNC10415667 were diluted in a 10-point, 3-fold serial dilution, and indicated compounds were pre-incubated with FBXO22 FIST for 30 min. A master mix of NSD2 PWWP1, UNC7096, and TR-FRET reagents was made prior to its addition to the compounds and/or FBXO22 FIST. The plates were sealed with metallic covers, mixed gently for 1 min, and incubated in the dark for 1 h. After 1 h, the plate was read on an EnVision 2103 plate reader with a 320 nm excitation filter and 615 nm/ 665 nm emission filters simultaneously with a dual mirror D400/D630 and a 100 μs delay. […] Raw TR-FRET signals were normalized to a high inhibition control (10 μM of UNC10088) and negative control (1% DMSO). The normalized TR-FRET signals were plotted against the compound concentrations. […] Ki values were calculated from the IC50s using the tight-binding model[41],[42]. The cooperativity factor (α) was calculated as the ratio of Ki (Binary)/ Ki (Ternary), with α > 1 indicating positive cooperativity between NSD2 PWWP1 and FBXO22 FIST based on its disruption of NSD2 binding to UNC7096.

O=C1COc2cc(C(=O)N(Cc3ccc(C(=O)Nc4ccc5c(c4)CCN(C(=O)CCCCC(O)S(=O)(=O)O)C5)cc3)C3CC3)ccc2N1 (stereo not drawn) [UNC10088]
fold reduction of IC50 upon addition of FBXO22 (IC50 alone vs with FBXO22 FIST): about 2.5 fold
cooperativity factor (α) = Ki (Binary)/Ki (Ternary) (NSD2 PWWP1 with vs without FBXO22 FIST, with preincubation): 3.3
cooperativity factor (α) without preincubation (compound not preincubated with FBXO22): 3.1
